Bounds are passed on as bounds.

System in the first series: not listed separately
In words: Oral bioavailability in dog. It is filed as ADME, organism-based, Canis lupus familiaris. Particulars: in vivo.
Molecule `C[C@@H](c1c[nH]c2ccccc12)[C@H](C(=O)NC[C@H]1OC[C@H](N)CO1)N1CCN(CCC(c2ccccc2)c2ccccc2)C1=O` had a bioavailability of 64%.
On the same count and under the same terms, for `C[C@@H](c1c[nH]c2ccccc12)[C@H](C(=O)NC[C@H]1OC[C@H](N)CO1)N1CCN(CCCc2ccccc2)C1=O` the value was 19%.
The same measure, in the same setting: to `FC1CCN(CCc2ccc(C3CCC4(CC3)OOC3(OO4)C4CC5CC(C4)CC3C5)cc2)CC1` (configuration not stated) belongs 40%.

System in the next series: not listed separately
In words: Stability of the compound in 0.01 N HCL at pH 2.0 assessed as half-life.
Conditions: not given
It counts as physicochemical.
Turning to `C[C@H]1[C@@H](CCc2ccc(C(=O)O)cc2)O[C@@H]2O[C@@]3(C)CC[C@H]4[C@H](C)CC[C@@H]1[C@@]24OO3`, the half-life was 165 h.
Still for that read-out and setting: to `C[C@H]1[C@@H](Cc2ccccc2)O[C@@H]2O[C@@]3(C)CC[C@H]4[C@H](C)CC[C@@H]1[C@@]24OO3` belongs 165 h.
On the same count and under the same terms, to `C[C@@H]1CC[C@H]2[C@@H](C)CO[C@@H]3O[C@@]4(C)CC[C@@H]1[C@]32OO4` belongs 165 h; to `C[C@H]1[C@@H](CCCCC(=O)O)O[C@@H]2O[C@@]3(C)CC[C@H]4[C@H](C)CC[C@@H]1[C@@]24OO3`, 165 h; to `C[C@H]1[C@@H](CCCC(=O)O)O[C@@H]2O[C@@]3(C)CC[C@H]4[C@H](C)CC[C@@H]1[C@@]24OO3`, 165 h.
The same measure, in the same setting: for `C[C@H]1[C@@H](O[C@H](CCC(=O)O)c2ccc(Cl)cc2)O[C@@H]2O[C@@]3(C)CC[C@H]4[C@H](C)CC[C@@H]1[C@@]24OO3` the value was 13 h; for `C[C@H]1[C@@H](OCc2ccc(C(=O)O)cc2)O[C@@H]2O[C@@]3(C)CC[C@H]4[C@H](C)CC[C@@H]1[C@@]24OO3`, 11 h; for `CCCC[C@H]1O[C@@H]2O[C@@]3(C)CC[C@H]4[C@H](C)CC[C@@H]([C@H]1C)[C@@]24OO3`, 165 h.

System in a further series: not listed separately
Nature of the series: Half-life in human plasma. It is filed as ADME.
Conditions: not given
`N=C(N)NCCN1CCCCCCC1` [GUANETHIDINE]: the half-life is 36 h.
Still for that read-out and setting: for `COC(=O)N[C@H](C(=O)N1CCC[C@H]1c1nc(-c2ccc(-c3ccc(-c4c[nH]c([C@@H]5CCCN5C(=O)[C@@H](NC(=O)OC)C(C)C)n4)cc3)cc2)c[nH]1)C(C)C` the value was 12 h; for `COC(=O)N[C@H](C(=O)N1CCC[C@H]1c1ncc(-c2ccc(-c3ccc(-c4cnc([C@@H]5CC6(CN5C(=O)[C@@H](NC(=O)OC)C(C)C)OCCO6)[nH]4)cc3)cc2)[nH]1)C(C)C`, 8 h; for `N=C(N)NCC1COC2(CCCCC2)O1` (configuration not stated), 12 h.
The same measure, in the same setting: to `Cn1c(=O)c2c(ncn2CC2OCCO2)n(C)c1=O` [DOXOFYLLINE] belongs 7 h.

System in a further series: not listed separately
In words: Stability of the compound assessed as compound hydrolysis by measuring rate constant by NMR spectroscopic analysis. It is filed as physicochemical.
Conditions: not given
In the case of `C=CC1(C)CCCCC1`, the K is on record as 9.9 10^-3No_unit.
The same measure, in the same setting: to `C=CC1(C)OCCO1` belongs 8.8 10^-4No_unit; to `CC(Cl)C1(C)CCCCC1` (configuration not stated), 2.25 10^-6No_unit.
Still for that read-out and setting: for `CC(Cl)C1(C)CCC(C)(C)CC1` (configuration not stated) the value was 0; for `C=CC1(C)CCC(C)(C)CC1`, 7.33 10^-4No_unit; for `CC(Cl)C1(C)OCCO1` (configuration not stated), 0.

A further series deals with Substance-P receptor (Homo sapiens, UniProt P25103). Nature of the series: Displacement of [125I]-labeled SP from human NK-1 receptor expressed in CHO cells. It counts as cell-based.
Substance-P receptor, sequence (P25103 whole entry): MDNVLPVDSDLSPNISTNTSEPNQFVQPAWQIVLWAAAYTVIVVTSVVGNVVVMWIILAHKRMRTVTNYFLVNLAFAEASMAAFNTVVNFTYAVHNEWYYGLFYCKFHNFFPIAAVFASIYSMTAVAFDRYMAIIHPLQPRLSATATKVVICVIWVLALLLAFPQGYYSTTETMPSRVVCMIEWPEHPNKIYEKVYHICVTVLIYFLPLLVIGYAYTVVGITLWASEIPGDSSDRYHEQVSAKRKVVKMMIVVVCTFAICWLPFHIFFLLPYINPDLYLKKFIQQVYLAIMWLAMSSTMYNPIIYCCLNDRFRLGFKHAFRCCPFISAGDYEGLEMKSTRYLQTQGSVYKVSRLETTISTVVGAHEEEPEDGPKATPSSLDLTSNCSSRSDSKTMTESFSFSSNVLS
Conditions: not given
(In general: Displacement assays read how much labelled ligand stays bound in the presence of the test substance.)
Take `Fc1ccc([C@@H]2NCCO[C@]23CC[C@H](c2ccccc2C(F)(F)F)CO3)cc1`: the IC50 was determined as 0.4 µM.
Same read-out and setting: for `CN(C)Cc1[nH]nnc1CN1CCO[C@@]2(CC[C@@H](c3ccccc3OC(F)(F)F)CO2)[C@@H]1c1ccc(F)cc1` the value was 0.0014 µM.
Same read-out and setting: for `COc1cccc(-n2nnnc2C(F)(F)F)c1[C@H]1CO[C@@]2(C1)OCCN[C@H]2c1ccc(F)cc1` the value was 0.0001 µM; for `Fc1ccc([C@@H]2NCCO[C@@]23CC[C@@H](c2ccccc2C(F)(F)F)CO3)cc1`, 0.028 µM.
The same measure, in the same setting: to `Fc1ccc([C@@H]2NCCO[C@@]23C[C@@H](c2ccccc2C(F)(F)F)CO3)cc1` belongs 0.024 µM; to `CN(C)Cc1[nH]nnc1CN1CCO[C@@]2(CC[C@@H](c3ccccc3C(F)(F)F)CO2)[C@@H]1c1ccc(F)cc1`, 0.0011 µM.

System in another series: not listed separately
In words: Stability of the compound at pH 2 assessed as half-life. It is filed as physicochemical. Particulars: buffer.
On to `Nc1nc2c(ncn2[C@H]2C=C[C@@H](CO)O2)c(=O)[nH]1`, for which the half-life is less than 120 s.
`CC1(C)OC[C@@H](C/C=C\CCCC(=O)O)[C@@H](c2ccccc2O)O1`: the half-life is 56 s.
With `O=C(O)CCC/C=C\C[C@@H]1CO[C@H](C(F)(F)F)O[C@@H]1c1ccccc1O`, the t1/2 came out at 7 yr.

System in a further series: not listed separately
In words: Stability of the compound in HCL solution assessed as compound hydrolysis by measuring relative rate constant by NMR analysis. The conditions noted are these: buffer. It is filed as physicochemical.
On to `c1ccc2c(c1)COC1(CCCCC1)O2`, for which the K was 2.1 10^4No_unit.
On the same count and under the same terms, to `c1ccc2c(c1)COC1(CCCCC1)OC2` belongs 3.3 10^6No_unit; to `C1CCC2(CC1)OCCO2`, 5.4 10^5No_unit.
The same measure, in the same setting: for `CCOC1(OCC)CCCCC1` the value was 1.3 10^10No_unit.
The same measure, in the same setting: for `COC1(OC)OCCCO1` the value was 2.6 10^8No_unit; for `C1COCOC1`, 1.
Regarding `COC1(C)OCCCO1`, the K is 2.4 10^9No_unit.
Regarding `C1CCC2(CC1)OCCCCO2`, the K is listed as 1 10^8No_unit.
`c1ccc2c(c1)OC1(CCCCC1)O2`: the K is listed as 1.
Still for that read-out and setting: for `CCC1OCCCO1` the value was 1 10^2No_unit; for `CCOC1(OCC)OCCCO1`, 2.3 10^9No_unit.
On the same count and under the same terms, for `C1CCC2(CC1)OCCCO2` the value was 2.1 10^7No_unit; for `CCC1(C)OCCCO1`, 3.7 10^6No_unit.
The same measure, in the same setting: for `c1ccc2c(c1)CCOC1(CCCCC1)O2` the value was 1.3 10^8No_unit.
Consider `COC1OCCCO1`, for which the K was 9.3 10^4No_unit.

System in the next series: not listed separately
Nature of the series: Oral bioavailability in mouse. The conditions noted are these: in vivo. It is filed as ADME, organism-based.
Take `C=C(C)CN1C[C@H](OC[C@@]23C[C@@H]4[C@H](C)CC[C@H]4[C@@]4(C=O)C[C@@H]2C=C(C(C)C)[C@@]34C(=O)O)O[C@H](C)[C@@H](OC)C1`: the bioavailability is 63%.
Same read-out and setting: to `FC1CCN(CCc2ccc(C3CCC4(CC3)OOC3(OO4)C4CC5CC(C4)CC3C5)cc2)CC1` (configuration not stated) belongs 82%.

System in the next series: not listed separately
Nature of the series: Oral bioavailability in human. Particulars: in vivo. It is filed as ADME, organism-based.
In the case of `Nc1nc(Cl)nc2c1ncn2[C@H]1C[C@H](O)[C@@H](CO)O1` [CLADRIBINE], the bioavailability was 40%.
The same measure, in the same setting: for `Nc1ccn([C@@H]2O[C@H](CO)[C@@H](O)[C@@H]2O)c(=O)n1` [CYTARABINE] the value was 20%; for `Cn1c(=O)c2c(ncn2CC2OCCO2)n(C)c1=O` [DOXOFYLLINE], 63%.
On the same count and under the same terms, for `Nc1ccn([C@H]2CC[C@@H](CO)O2)c(=O)n1` [ZALCITABINE] the value was 80%.

System in another series: not listed separately
Nature of the series: Oral bioavailability in rat. It counts as ADME, organism-based. The conditions noted are these: in vivo.
Turning to `c1cc([C@H]2CC[C@]3(CC2)OOC2(O3)C3CC4CC(C3)CC2C4)ccc1OCCN1CCOCC1` (some centres not stated), the bioavailability worked out at 76%.
Regarding `FC1CCN(CCc2ccc(C3CCC4(CC3)OOC3(OO4)C4CC5CC(C4)CC3C5)cc2)CC1` (configuration not stated), the bioavailability was found to be 62%.

System in the next series: not listed separately
In words: Chemical stability of the compound assessed as acid-catalyzed hydrolysis by measuring rate constant.
Conditions: not given
It is filed as physicochemical.
Take `Nc1ncnc2c1ncn2[C@@H]1O[C@H](CO)[C@@H](O)[C@H]1O` [ADENOSINE]: the Drug metabolism is 0.82 10^-3L/mol/min.
Consider `Nc1ncnc2c1ncn2[C@@H]1O[C@H](CO)C[C@@H]1O`, for which the Drug metabolism is 0.057 L/mol/min.
On the same count and under the same terms, for `Nc1ncnc2c1ncn2[C@H]1C[C@H](O)[C@@H](CO)O1` [DEOXYADENOSINE] the value was 0.96 L/mol/min; for `Nc1ncnc2c1ncn2[C@@H]1O[C@H](CO)[C@H](O)[C@H]1O`, 0.29 10^-3L/mol/min; for `Nc1ncnc2c1ncn2[C@H]1CC[C@@H](CO)O1`, 35 L/mol/min.
Still for that read-out and setting: for `Nc1ncnc2c1ncn2[C@@H]1O[C@H](CO)C[C@H]1O` [CORDYCEPIN] the value was 0.012 L/mol/min.
On to `Nc1ncnc2c1ncn2[C@@H]1O[C@H](CO)[C@H](O)[C@@H]1O`, for which the Drug metabolism is reported as 9.6 10^-3L/mol/min.

System in another series: not listed separately
Nature of the series: Dissociation constant, pKa of the compound. It counts as physicochemical.
Conditions: not given
`CCC(C)n1ncn(-c2ccc(N3CCN(c4ccc(OCC5COC(Cn6cncn6)(c6ccc(Cl)cc6Cl)O5)cc4)CC3)cc2)c1=O` (configuration not stated) [ITRACONAZOLE] returned a pKa of 3.7.

By bioavailability is commonly meant dose-corrected exposure relative to a reference, in per cent. Broadly, the half-life is how long it takes for the measured level to halve. Usually IC50 stands for the concentration that gives 50% inhibition. Read a high IC50 as a need for much substance. In general, pKa refers to the pH at which an ionisable group is half protonated. The low end stands for a stronger acid or weaker base, the high end for a weaker acid or stronger base.

These data come from ChEMBL document CHEMBL5244275, “Geminal Diheteroatomic Motifs: Some Applications of Acetals, Ketals, and Their Sulfur and Nitrogen Homologues in Medicinal Chemistry and Drug Design” (J Med Chem, 2021).
